According to publication PMC5477233 (Chembiochem : a European journal of chemical biology, 2016):
Entries after “also recorded” stand apart in the source; their conditions may differ.

System: human insulin receptor
Test: in vitro binding to the human insulin receptor
Settings: compared with wild-type biosynthetic human insulin (Figure S10)

In the case of [(1-^13C=^18O)Phe^B24]human insulin, the receptor-binding activity is reported as “full insulin receptor binding activity; also recorded: fully active in insulin receptor binding”.
